The values that follow are results of earlier work, collected in patent publication US20120172313A1, “TREATMENT OF PROLIFERATIVE DISEASES” (priority 2010, published 2012).

One series concerns Sclerotinia sclerotiorum. The note with it: 100 μg/mL; cited from earlier work.
In a further series the test system is Phoma betae. Particulars: 1 μg/mL; cited from earlier work.

For the substance “Rs-AFP2: antifungal plant defensin from radish seeds (QKLCQRPSGTWSGVCGNNNACKNQCIRLEKARHGSCNYVFPAHKCICYFPC; UniProt P30230 30-80, looked up)”, the “activity against Sclerotinia sclerotiorum” value in the series on Sclerotinia sclerotiorum is “ineffective”. For the same substance, the “growth of Phoma betae” value with Phoma betae is “inhibits the growth”.
